Experimental data from PubChem BioAssay (NCI).
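48-hour exposure; five concentrations; linearly interpolated endpoints. Here, GI50 denotes the concentration required for 50% inhibition of growth. TGI: concentration producing complete growth inhibition.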

Tests used:
Assay in all cases: NCI tumour cell line growth inhibition, 48 h
[1] = tested on: CAKI-1 renal
[2] = tested on: 786-0 renal
[3] = tested on: UACC-257 melanoma
[4] = tested on: OVCAR-8 ovarian
[5] = tested on: SNB-75 CNS
[6] = tested on: IGROV1 ovarian
[7] = tested on: OVCAR-5 ovarian
[8] = tested on: HT29 colon

| Compound | GI50 [1] [µM] | TGI [1] [µM] | GI50 [2] [µM] | TGI [2] [µM] | GI50 [3] [µM] | TGI [3] [µM] | GI50 [4] [µM] | TGI [4] [µM] | GI50 [5] [µM] | TGI [5] [µM] | GI50 [6] [µM] | TGI [6] [µM] | GI50 [7] [µM] | TGI [7] [µM] | GI50 [8] [µM] | TGI [8] [µM] |
| --- | --- | --- | --- | --- | --- | --- | --- | --- | --- | --- | --- | --- | --- | --- | --- | --- |
| CC(C)(O)Cn1c(=O)c(Oc2ccc(F)cc2F)cc2cnc(NC3CCOCC3)nc21 | > 25 | > 25 | > 25 | > 25 | > 25 | > 25 | > 25 | > 25 | > 22.3 | > 25 | > 25 | > 25 | > 25 | > 25 | > 25 | > 25 |
| O=C1CCCC1C(=O)Nc1ccc2ccccc2c1 (stereo not drawn) |  | > 100 |  | > 100 |  | > 100 |  | > 100 |  | > 100 |  | > 100 |  | > 100 |  | > 100 |
| CN(C)C1(C#N)CCC2(CC1)OCCO2 |  | > 100 |  | > 100 |  | > 100 |  | > 100 |  | > 100 |  | > 100 |  | > 100 |  | > 100 |
| COC(=O)C1=CC(=O)C(C(=O)Nc2ccc(OC)cc2)C(c2ccccc2)O1 (stereo not drawn) |  | > 60 |  | 41.5 |  | > 100 |  | 96.8 |  | 43.1 |  | 51 |  | > 100 |  | > 100 |
| COc1ccc(C2SC(N)=Nc3c2c(C)nn3C(=O)c2ccncc2)cc1 (stereo not drawn) |  |  |  | > 100 |  | > 100 |  | > 100 |  | > 100 |  | > 100 |  | > 100 |  | > 100 |
| COc1cc([C@@H]2c3cc4c(cc3[C@H](OC3OC5COC(c6ccccc6)OC5C(O)C3O)[C@H]3COC(=O)[C@H]23)OCO4)cc(OC)c1OC (stereo partly drawn) | 0.378 | 22.2 | 0.594 | 19.6 | 1.07 | 3.69 | 0.355 | 2.12 | 0.403 | 8.11 | 0.337 | 1.34 | 2.58 | 22.5 | 0.356 | 2.32 |
| COc1ccc(CCNc2nc3ccccc3c3[nH]c4ccccc4c23)cc1OC | 11.4 | 24.8 | 1.7 | 3.28 | 1.99 | 3.8 | 2.02 | 5.54 | 14.3 | 28.4 |  |  | 3.48 | 11.6 | 2.04 | 6.32 |
| CCOC(=O)c1cc2c(n1Cc1cccc(OC)c1)-c1oncc1CC2 |  |  | 4.29 | > 100 | 39.6 | > 100 | 10.3 | > 100 | 0.399 | 3.03 | 0.78 | > 100 | 17.9 | > 100 | 0.37 | 15.8 |
| O=C(Cn1ccnc1[N+](=O)[O-])NCCO |  | > 100 |  | > 100 |  | > 100 |  | > 100 |  | > 100 |  | > 100 |  | > 100 |  | > 100 |
| CCc1nc(N)nc(N)c1-c1ccc(Cl)cc1 | 6.34 | > 100 | 5.89 | > 100 | 10.3 | > 100 |  | > 100 | > 100 | > 100 | 11.4 | > 100 | 31.7 | > 100 |  | > 100 |
